Source: US20180105548A1, “A novel compound (KS-513) isolated from Pseudolysimachion rotundum var. subintegrum, the composition comprising the same preventing or treating allergic disease, inflammatory disease, asthma or chronic obstructive pulmonary disease and the use thereof” (priority 2015, published 2018)

Legend:
Format in all cases: cell-based, mouse
TNF-alpha = TNF-alpha production in LPS-treated RAW264.7 cell (ELISA); details: for TNF-alpha production (relative % comparing with LPS treatment group) / TNF-alpha production, Inhibitory ratio (%): LPS 1 μg/mL, 24 hours
Method: (§1) RAW264.7 cell was inoculated into 96 well plates in the concentration of 1×10^5 cell/well to incubate for 18 hours. Various concentration of KS-513 compound (2.5, 5, 10 and 20 μM) was pre-treated therewith and 1 μg/mL of LPS (L6529, Sigma) was added thereto to incubate for 24 hours. The level of inflammatory cytokines such as IL-1beta, IL-6, TNF-alpha etc in the cell medium was determined by ELISA kit (IL-1beta:559603, IL-6:555240, TNF-alpha:5558534, BD) and the result was shown in FIG. 5 and Table 7-9.

iNOS = test: mRNA expression of iNOS in RAW264.7 cell line induced by LPS (real-time PCR); details: for iNOS mRNA expression, Fold (value compared with a negative group) / iNOS mRNA expression, Inhibition ratio (IR) compared with LPS treatment group: LPS 1 μg/ml, 12 hours
Method: (§2) In order to determine the inhibitory effect on the mRNA expression of pro-inflammatory medicated enzyme such as iNOS or COX-2, and pro-inflammatory medicated cytokines such as IL-1beta, IL-6, TNF-alpha in RAW264.7 cell line induced by LPS, following test using by real-time PCR (real-time polymerase chain reaction, quantitative real time polymerase chain reaction, qPCR) was performed according to the method disclosed in the literature (Livak, K. J., Schimittgen T. D., 2001, Analysis of relative gene expression data using real-time quantitiative PCR and the 2 (-Delta Delta C(T) method, Methods 25, p 402-408):
(§3) RAW264.7 cell was inoculated into 6-well-plates in the concentration of 1×10^6 cell/well to incubate for 12 hours. Various concentration of KS-513 compound (2.5, 5, 10 and 20 μM) was pre-treated therewith and 1 μg/mL of LPS (L6529, Sigma) was added thereto to incubate for 12 hours.
(§4) To extract total RNA, RNA was extracted using by Triazol B (invitrogen) and cDNA was synthesized using by Omniscript RT kit (205113, Qiagen, Gmbh, Hilden, Germany) after the quantification. The synthesized cDNA was mixed with its template and the primers shown in Table 3 (SEQ.I.D. 1-14), performed to denaturation at 94° C. for 5 mins using by PCR mix (PCR master Mix, Bioneer, Korea), and reacted as follows: 1 cycle for pre-denaturation; at 95° C. for 30 sec, 60° C. for 45 sec, 72° C. for 45 sec, 30 cycles for denaturation; 10 mins at 72° C., 1cycle for final extension. (FIG. 2)

IL-6 [1] = test: mRNA expression of IL-6 in RAW264.7 cell line induced by LPS (real-time PCR); details: for IL-6 mRNA expression, Fold (value compared with a negative group) / IL-6 mRNA expression, Inhibition ratio (IR) compared with LPS treatment group: LPS 1 μg/ml, 12 hours
Method: as §2, §3, §4

COX-2 [2] = test: COX-2 protein expression in RAW264.7 cell induced by LPS (Western blot); details: LPS 1 μg/ml, FIG. 4A
Method: In order to determine the inhibitory effect on the COX-2 protein expression and the reproduced level of PGE2, following test was performed by the method disclosed in the literature (Chen, C, et al., 1999, Involvement of p 38 mitogen-activated protein kinase in lipopolysaccharide-induced iNOS and COX-2 expression in J774 macrophage, Immunology, 97, pp 124-129)
The expressed level of COX-2 in RAW264.7 cell induced by LPS (1 μg/ml) was determined by using Western blot analysis according to the method disclosed in Experimental Example 3.

IL-6 [3] = test: IL-6 production in LPS-treated RAW264.7 cell (ELISA); details: for IL-6 production (relative % comparing with LPS treatment group) / IL-6 production, Inhibitory ratio (%): LPS 1 μg/mL, 24 hours
Method: as §1

NO = NO production in LPS-treated RAW264.7 cell (Griess Reagent); details: for NO production (relative % comparing with LPS treatment group) / NO production, Inhibitory ratio (%): LPS 1 μg/mL, 24 hours
Method: In order to determine the amount of NO reproduction in medium, following test was performed according to the method disclosed in the literature (Ding, A. H., et al., 1988, Release of reactive nitrogen intermediates and reactive oxygen intermediates from mouse peritoneal macrophages, Comparison of activating cytokines and evidence for independent production, Journal of Immunology, 141, pp 2407-2412).
RAW264.7 cell was inoculated into 96 well plates in the concentration of 1×10^5 cell/well to incubate for 18 hours. Various concentration of KS-513 compound (2.5, 5, 10 and 20 μM) was pre-treated therewith and 1 μg/mL of LPS (L6529, Sigma) was added thereto to incubate for 24 hours. The equivalent amount of Griess Reagent (G4410, Sigma) to the medium was added thereto and reacted at room temperature for 10 mins to determine the absorbance at 540 nm. The level of NO in the medium was determined using by standard curve expressed according to various concentration of sodium nitrite and the result was shown in Table 5 and FIG. 3.

IL-1beta = IL-1beta production in LPS-treated RAW264.7 cell (ELISA); details: for IL-1beta production (relative % comparing with LPS treatment group) / IL-1beta production, Inhibitory ratio (%): LPS 1 μg/mL, 24 hours
Method: as §1

COX-2 [4] = test: mRNA expression of COX-2 in RAW264.7 cell line induced by LPS (real-time PCR); details: for COX-2 mRNA expression, Fold (value compared with a negative group) / COX-2 mRNA expression, Inhibition ratio (IR) compared with LPS treatment group: LPS 1 μg/ml, 12 hours
Method: as §2, §3, §4

[5] = vs LPS treatment group (1 μg/ml), FIG. 5
[6] = various concentration, compared with control group treated with LPS (100%)

CO[C@@H]1C[C@H]2[C@H](OC(=O)c3ccc(O)cc3)[C@@H]3O[C@]3(CO)[C@H]2[C@H](O[C@@H]2O[C@H](CO)[C@@H](O)C(O)[C@H]2O)O1 (stereo partly drawn) [KS-513, (1aS, 1bS,2S,4S,5aR,6S,6aS)-1a-(hydroxymethyl)-4-methoxy-2-(((2S,3R,5S,6R)-3,4,5-trihydroxy-6-(hydroxymethyl)tetrahydro-2H-pyran-2-yl)oxy)octahydrooxireno[2′,3′:4,5]cyclopenta[1,2-c]pyran-6-yl 4-hydroxybenzoate]
TNF-alpha production (relative % comparing with LPS treatment group) (TNF-alpha; 2.5 μM): 97.38 ± 0.58%
TNF-alpha production, Inhibitory ratio (%) (TNF-alpha; 2.5 μM): 2.62%
TNF-alpha production (relative % comparing with LPS treatment group) (TNF-alpha; 5 μM): 86.12 ± 1.14%
TNF-alpha production, Inhibitory ratio (%) (TNF-alpha; 5 μM): 13.88%
TNF-alpha production (relative % comparing with LPS treatment group) (TNF-alpha; 10 μM): 68.03 ± 2.51%
TNF-alpha production, Inhibitory ratio (%) (TNF-alpha; 10 μM): 31.97%
TNF-alpha production (relative % comparing with LPS treatment group) (TNF-alpha; 20 μM): 58.44 ± 3.50%
TNF-alpha production, Inhibitory ratio (%) (TNF-alpha; 20 μM): 41.56%
level of produced TNF-alpha (TNF-alpha; [5]): reduced in a dose dependent manner
iNOS mRNA expression, Fold (value compared with a negative group) (iNOS; 2.5 μM): 7.25 ± 2.51 Fold
iNOS mRNA expression, Inhibition ratio (IR) compared with LPS treatment group (iNOS; 2.5 μM): 18.41%
iNOS mRNA expression, Fold (value compared with a negative group) (iNOS; 5 μM): 5.94 ± 2.91 Fold
iNOS mRNA expression, Inhibition ratio (IR) compared with LPS treatment group (iNOS; 5 μM): 33.09%
iNOS mRNA expression, Fold (value compared with a negative group) (iNOS; 10 μM): 2.48 ± 0.19 Fold
iNOS mRNA expression, Inhibition ratio (IR) compared with LPS treatment group (iNOS; 10 μM): 72.12%
iNOS mRNA expression, Fold (value compared with a negative group) (iNOS; 20 μM): 1.32 ± 0.47 Fold
iNOS mRNA expression, Inhibition ratio (IR) compared with LPS treatment group (iNOS; 20 μM): 85.19%
expressed level of mRNA of iNOS (iNOS; [6]): significantly decreased in a dose dependent manner
IL-6 mRNA expression, Fold (value compared with a negative group) (IL-6 [1]; 2.5 μM): 24.73 ± 2.26 Fold
IL-6 mRNA expression, Inhibition ratio (IR) compared with LPS treatment group (IL-6 [1]; 2.5 μM): 20.62%
IL-6 mRNA expression, Fold (value compared with a negative group) (IL-6 [1]; 5 μM): 14.24 ± 1.44 Fold
IL-6 mRNA expression, Inhibition ratio (IR) compared with LPS treatment group (IL-6 [1]; 5 μM): 54.30%
IL-6 mRNA expression, Fold (value compared with a negative group) (IL-6 [1]; 10 μM): 8.57 ± 1.23 Fold
IL-6 mRNA expression, Inhibition ratio (IR) compared with LPS treatment group (IL-6 [1]; 10 μM): 72.50%
IL-6 mRNA expression, Fold (value compared with a negative group) (IL-6 [1]; 20 μM): 2.35 ± 0.81 Fold
IL-6 mRNA expression, Inhibition ratio (IR) compared with LPS treatment group (IL-6 [1]; 20 μM): 92.46%
expressed level of mRNA of IL-6 (IL-6 [1]; [6]): significantly decreased in a dose dependent manner
expressed level of COX-2 protein (COX-2 [2]): reduced in a dose dependent manner
IL-6 production (relative % comparing with LPS treatment group) (IL-6 [3]; 2.5 μM): 75.21 ± 2.20%
IL-6 production, Inhibitory ratio (%) (IL-6 [3]; 2.5 μM): 24.79%
IL-6 production (relative % comparing with LPS treatment group) (IL-6 [3]; 5 μM): 71.34 ± 5.75%
IL-6 production, Inhibitory ratio (%) (IL-6 [3]; 5 μM): 28.66%
IL-6 production (relative % comparing with LPS treatment group) (IL-6 [3]; 10 μM): 51.13 ± 2.31%
IL-6 production, Inhibitory ratio (%) (IL-6 [3]; 10 μM): 48.87%
IL-6 production (relative % comparing with LPS treatment group) (IL-6 [3]; 20 μM): 39.25 ± 2.85%
IL-6 production, Inhibitory ratio (%) (IL-6 [3]; 20 μM): 60.75%
level of produced IL-6 (IL-6 [3]; [5]): reduced in a dose dependent manner
NO production (relative % comparing with LPS treatment group) (NO; 2.5 μM): 91.89 ± 4.24%
NO production, Inhibitory ratio (%) (NO; 2.5 μM): 8.21%
NO production (relative % comparing with LPS treatment group) (NO; 5 μM): 83.69 ± 3.79%
NO production, Inhibitory ratio (%) (NO; 5 μM): 16.41%
NO production (relative % comparing with LPS treatment group) (NO; 10 μM): 80.06 ± 2.68%
NO production, Inhibitory ratio (%) (NO; 10 μM): 20.04%
NO production (relative % comparing with LPS treatment group) (NO; 20 μM): 72.16 ± 3.57%
NO production, Inhibitory ratio (%) (NO; 20 μM): 27.94%
reproduced level of NO (NO; based on LPS treatment (100%)): reduced in a dose dependent manner
IL-1beta production (relative % comparing with LPS treatment group) (IL-1beta; 2.5 μM): 95.17 ± 3.68%
IL-1beta production, Inhibitory ratio (%) (IL-1beta; 2.5 μM): 4.83%
IL-1beta production (relative % comparing with LPS treatment group) (IL-1beta; 5 μM): 76.69 ± 3.40%
IL-1beta production, Inhibitory ratio (%) (IL-1beta; 5 μM): 23.31%
IL-1beta production (relative % comparing with LPS treatment group) (IL-1beta; 10 μM): 61.56 ± 3.18%
IL-1beta production, Inhibitory ratio (%) (IL-1beta; 10 μM): 38.44%
IL-1beta production (relative % comparing with LPS treatment group) (IL-1beta; 20 μM): 46.10 ± 2.51%
IL-1beta production, Inhibitory ratio (%) (IL-1beta; 20 μM): 53.9%
level of produced IL-1beta (IL-1beta; [5]): reduced in a dose dependent manner
COX-2 mRNA expression, Fold (value compared with a negative group) (COX-2 [4]; 2.5 μM): 4.72 ± 0.21 Fold
COX-2 mRNA expression, Inhibition ratio (IR) compared with LPS treatment group (COX-2 [4]; 2.5 μM): 39.91%
COX-2 mRNA expression, Fold (value compared with a negative group) (COX-2 [4]; 5 μM): 2.64 ± 0.15 Fold
COX-2 mRNA expression, Inhibition ratio (IR) compared with LPS treatment group (COX-2 [4]; 5 μM): 66.40%
COX-2 mRNA expression, Fold (value compared with a negative group) (COX-2 [4]; 10 μM): 1.43 ± 0.50 Fold
COX-2 mRNA expression, Inhibition ratio (IR) compared with LPS treatment group (COX-2 [4]; 10 μM): 81.81%
COX-2 mRNA expression, Fold (value compared with a negative group) (COX-2 [4]; 20 μM): 0.97 ± 0.38 Fold
COX-2 mRNA expression, Inhibition ratio (IR) compared with LPS treatment group (COX-2 [4]; 20 μM): 87.66%
expressed level of mRNA of COX-2 (COX-2 [4]; [6]): significantly decreased in a dose dependent manner
